# Experimental data taken from ChEMBL document CHEMBL1128864, “Antitumor activities of -, -monogalactosylceramides and four diastereomers of an -galactosylceramide” (1995).
# Columns and labels:
# Assay type in all cases: functional
# Mus musculus [1] = organism: Mus musculus; assay: Evaluated for lymphocyte proliferation stimulatory effect in BALB/c mice and percent control of [3H]-TdR incorporation using allogenic mixed lymphocyte reaction (MLR) at a dose 10 ng/ml
# Mus musculus [2] = assay: Evaluated for life span prolonging effects against female BDF1 mice infected intraperitoneally 1x10E6 murine melanoma B16 cells on day 0 at dose of 1 mg/kg; conditions: route intraperitoneal
# Mus musculus [3] = organism: Mus musculus; assay: Evaluated for lymphocyte proliferation stimulatory effect in BALB/c mice and percent control of [3H]TdR incorporation at dose 100 ng/ml using allogenic mixed lymphocyte reaction (MLR)
# Mus musculus [4] = assay: Evaluated for life span prolonging effects against female BDF1 mice infected intraperitoneally 1x10E6 murine melanoma B16 cells on day 0 at dose of 0.1 mg/kg; conditions: route intraperitoneal
# Mus musculus [5] = assay: Evaluated for life span prolonging effects against female BDF1 mice infected intraperitoneally 1x10E6 P388 cells on day 0 at intravenous dose 0.1 mg/kg on day 1,5,9
# Mus musculus [6] = organism: Mus musculus; assay: Evaluated for lymphocyte proliferation stimulatory effect in BALB/c mice and percent control of [3H]TdR incorporation using allogenic mixed lymphocyte reaction (MLR) at a dose 1 ng/ml
# Mus musculus [7] = assay: Percent of tumor growth inhibition ratio (TGIR)of the compound administered intravenously at dose 100 ug/kg(on day 7, 11,15) in subcutaneously infected BDF1 mice on day 14
# Mus musculus [8] = assay: Percent of tumor growth inhibition ratio (TGIR)of the compound administered intravenously at dose 100 ug/kg(on day 7, 11,15) in subcutaneously infected BDF1 mice on day 22
# Mus musculus [9] = assay: Percent of tumor growth inhibition ratio (TGIR)of the compound administered intravenously at dose 100 ug/kg(on day 7, 11,15) in subcutaneously infected BDF1 mice on day 18
# Mus musculus [10] = assay: Percent of tumor growth inhibition ratio (TGIR)of the compound administered intravenously at dose 100 ug/kg(on day 7, 11,15) in subcutaneously infected BDF1 mice on day 11
# Mus musculus [11] = assay: Percent of tumor growth inhibition ratio (TGIR)of the compound administered intravenously at dose 100 ug/kg on day 1, 5, 9 in subcutaneously (murine fibrosarcoma Meth A cells) infected in BDF1 mice on day 13
# Mus musculus [12] = assay: Percent of tumor growth inhibition ratio (TGIR)of the compound administered intravenously at dose 100 ug/kg on day 1, 5, 9 in subcutaneously (murine fibrosarcoma Meth A cells) infected in BDF1 mice on day 10
# Mus musculus [13] = assay: Percent of tumor growth inhibition ratio (TGIR)of the compound administered intravenously at dose 100 ug/kg(on day 1, 5, 9) in subcutaneously infected BDF1 mice on day 20
# Mus musculus [14] = assay: Percent of tumor growth inhibition ratio (TGIR)of the compound administered intravenously at dose 100 ug/kg on day 1, 5, 9 in subcutaneously (murine fibrosarcoma Meth A cells) infected in BDF1 mice on day 20
# Mus musculus [15] = assay: Percent of tumor growth inhibition ratio (TGIR)of the compound administered intravenously at dose 100 ug/kg(on day 1, 5, 9) in subcutaneously infected BDF1 mice on day 12
# Mus musculus [16] = assay: Percent of tumor growth inhibition ratio (TGIR)of the compound administered intravenously at dose 100 ug/kg(on day 1, 5, 9) in subcutaneously infected BDF1 mice on day 9
# Mus musculus [17] = assay: Percent of tumor growth inhibition ratio (TGIR)of the compound administered intravenously at dose 100 ug/kg on day 1, 5, 9 in subcutaneously (murine fibrosarcoma Meth A cells) infected in BDF1 mice on day 16
# Mus musculus [18] = assay: Percent of tumor growth inhibition ratio (TGIR)of the compound administered intravenously at dose 100 ug/kg(on day 1, 5, 9) in subcutaneously infected BDF1 mice on day 16
Structure (SMILES),Control (Mus musculus [1]) [%],Survival (Mus musculus [2]) [days],T/C (Mus musculus [2]) [%],Control (Mus musculus [3]) [%],Survival (Mus musculus [4]) [days],T/C (Mus musculus [4]) [%],Survival (Mus musculus [5]) [days],T/C (Mus musculus [5]) [%],Control (Mus musculus [6]) [%],TGIR (Mus musculus [7]) [%],TGIR (Mus musculus [8]) [%],TGIR (Mus musculus [9]) [%],other results
CCCCCCCCCCCCCCCCCCCCCC[C@@H](O)C(=O)N[C@@H](CO[C@H]1O[C@@H](CO)[C@H](O)[C@H](O)[C@@H]1O)[C@H](O)[C@H](O)CCCCCCCCCCCC(C)C,220,27,146,236,27.6,149,11.3,109,184,,,,
CCCCCCCCCCCCCCCCCCCCCC[C@@H](O)C(=O)N[C@@H](CO[C@H]1O[C@@H](CO)[C@H](O)[C@H](O)[C@@H]1O)[C@H](O)[C@H](O)CCCCCCCCCCCC,258,31.5,170,350,26.8,145,11,106,253,,,,
CCCCCCCCCCCCCCCCCCCCCCC[C@@H](O)C(=O)N[C@@H](CO[C@H]1O[C@@H](CO)[C@H](O)[C@H](O)[C@@H]1O)[C@H](O)[C@H](O)CCCCCCCCCCCC(C)CC (some centres undefined),281,32,173,319,28,151,11.2,108,233,,,,
CCCCCCCCCCCCCCCCCCCCCC[C@@H](O)C(=O)N[C@@H](CO[C@H]1O[C@@H](CO)[C@H](O)[C@H](O)[C@@H]1O)[C@H](O)[C@H](O)CCCCCCCCCCCC(C)CC (some centres undefined),209,34.5,187,255,28.2,152,11.2,108,179,,,,
CCCCCCC/C=C/C(C)=C/CC/C=C/[C@@H](O)[C@H](CO[C@H]1O[C@@H](CO)[C@H](O)[C@H](O)[C@@H]1O)NC(=O)[C@H](O)CCCCCCCCCCCCCCCCCCCCCC,134,23.7,127,169,21.3,115,11.3,109,142,,,,
CCCCCCCCCCCCCC(=O)N[C@H](CO[C@H]1O[C@@H](CO)[C@H](O)[C@H](O)[C@@H]1O)[C@@H](O)CCCCCCCCCCCCC,,,,,,,,,,52.6,40.1,42.2,TGIR (Mus musculus [10]): 55.9%
CCCCCCCCCCCCCC(=O)N[C@@H](CO[C@H]1O[C@@H](CO)[C@H](O)[C@H](O)[C@@H]1O)[C@H](O)CCCCCCCCCCCCC,,,,,,,,,,66.6,67.9,66.4,TGIR (Mus musculus [10]): 76.5%
CCCCCCCCCCCCCC(=O)N[C@H](CO[C@H]1O[C@@H](CO)[C@H](O)[C@H](O)[C@@H]1O)[C@H](O)CCCCCCCCCCCCC,,,,,,,,,,13,5.1,11,
CCCCCCCCCCCCCC(=O)N[C@@H](CO[C@H]1O[C@@H](CO)[C@H](O)[C@H](O)[C@@H]1O)[C@@H](O)CCCCCCCCCCCCC,,,,,,,,,,4.9,13.1,8.5,
CCCCCCCCCCCCCCCCCCCCCCCCCC(=O)N[C@@H](CO[C@H]1O[C@@H](CO)[C@H](O)[C@H](O)[C@@H]1O)[C@H](O)[C@H](O)CCCCCCCCCCCCCC,,,,,,,,,,17.2,-3.8,20.3,TGIR (Mus musculus [10]): 16.1%
CCCCCCCCCCCCCCC[C@@H](O)[C@H](CO[C@H]1O[C@@H](CO)[C@H](O)[C@H](O)[C@@H]1O)NC(=O)CCCCCCCCCCCCC (stereo in doubt; form 1),,,,,,,,,,,,,TGIR (Mus musculus [11]): 33.1%; TGIR (Mus musculus [12]): 26.9%; TGIR (Mus musculus [13]): 28.3%; TGIR (Mus musculus [14]): 3.9%; TGIR (Mus musculus [15]): 38%; TGIR (Mus musculus [16]): 29%; TGIR (Mus musculus [17]): 22.1%; TGIR (Mus musculus [18]): 35%
CCCCCCCCCCCCCCC[C@@H](O)[C@H](CO[C@H]1O[C@@H](CO)[C@H](O)[C@H](O)[C@@H]1O)NC(=O)CCCCCCCCCCCCC (stereo in doubt; form 2),,,,,,,,,,,,,TGIR (Mus musculus [11]): 45%; TGIR (Mus musculus [12]): 45.2%; TGIR (Mus musculus [13]): -7.6%; TGIR (Mus musculus [14]): 7%; TGIR (Mus musculus [15]): 2.7%; TGIR (Mus musculus [16]): -28%; TGIR (Mus musculus [17]): 29.2%; TGIR (Mus musculus [18]): 1.4%
CCCCCCCCCCCCCCC[C@@H](O)[C@H](CO[C@H]1O[C@@H](CO)[C@H](O)[C@H](O)[C@@H]1O)NC(=O)CCCCCCCCCCCCC (stereo in doubt; form 3),,,,,,,,,,,,,TGIR (Mus musculus [11]): 41.5%; TGIR (Mus musculus [12]): 45.6%; TGIR (Mus musculus [13]): 4.2%; TGIR (Mus musculus [14]): 21.3%; TGIR (Mus musculus [15]): 45.2%; TGIR (Mus musculus [16]): 35.3%; TGIR (Mus musculus [17]): 28.9%; TGIR (Mus musculus [18]): 26.8%
CCCCCCCCCCCCCCC[C@@H](O)[C@H](CO[C@H]1O[C@@H](CO)[C@H](O)[C@H](O)[C@@H]1O)NC(=O)CCCCCCCCCCCCC (stereo in doubt; form 4),,,,,,,,,,,,,TGIR (Mus musculus [11]): 68.1%; TGIR (Mus musculus [12]): 69%; TGIR (Mus musculus [13]): 54%; TGIR (Mus musculus [14]): 36.7%; TGIR (Mus musculus [15]): 62%; TGIR (Mus musculus [16]): 59.5%; TGIR (Mus musculus [17]): 58.1%; TGIR (Mus musculus [18]): 64.8%
CCCCCCCCCCCCCCCCCCCCCCCCCC(=O)N[C@@H](CO[C@H]1O[C@H](CO)[C@H](O)[C@H](O)[C@H]1O)[C@H](O)[C@H](O)CCCCCCCCCCCCCC [RGI-7000],,,,,,,,,,50.9,40.2,51.1,TGIR (Mus musculus [10]): 41.1%
